Source: US20220274997A1, “PIM KINASE INHIBITOR COMPOSITIONS AND USES THEREOF” (Snap Bio, Inc., priority 2019, published 2022)

Key:
[1] = tested on: A673; assay: CellTiter-Glo cancer cell growth inhibition, A673; assay type: cell-based
Text: (§1) The CellTiter-Glo® Luminescent Cell Viability Assay is a sensitive homogeneous method to determine the number of viable cells in culture, Detection is based on using the luciferase reaction to measure the amount of ATP from viable cells. The amount of ATP in cells correlates with cell viability. Within minutes after a loss of membrane integrity, cells lose the ability to synthesize ATP, and endogenous ATPases destroy any remaining ATP; thus the levels of ATP fall precipitously. The CellTiter-Glo® Reagent does three things upon addition to cells. It lyses cell membranes to release ATP; it inhibits endogenous ATPases, and it provides luciferin, luciferase and other reagents necessary to measure ATP using a bioluminescent reaction. The unique properties of a proprietary stable luciferase.
(§2) All assays were performed by Reaction Biology Corporation (Malvern, Pa.) or ChemDiv, Inc. (San Diego, Calif.). All cell lines were purchased from American Type Culture Collection (ATCC, Manassas, Va.), except Huh 7 (RIKEN, Toyo, Japan) and HepaRG (Life Technologies, Carlsbad, Calif.).
(§3) Stock solutions ([…]) were diluted with cell culture media to produce 500× serial dilutions and […] of final compound dilutions were added to cells in assay plates to screen a series of 10 doses starting at […]. Final DMSO concentration was 0.2%. Assay plates are centrifuged at 100 rpm, 1 minute and kept at 37° C., 5% CO2, humidified atmosphere. […] Luminescence intensity was measured for each well using the Tecan M 1000 microplate reader after 5 min of incubation with CellTiter-Glo Reagent. The number of viable cells in culture was determined based on quantitation of the ATP present in each culture well. […] The EC50 curves were plotted and […] values were calculated using the GraphPad Prism 4 program based on a sigmoidal dose-response equation.

[2] = tested on: Huh7; assay: CellTiter-Glo cancer cell growth inhibition, Huh7; assay type: cell-based
Text: as §1, §2, §3

[3] = tested on: HepG2; assay: CellTiter-Glo cancer cell growth inhibition, HepG2; assay type: cell-based, human
Text: as §1, §2, §3

[4] = target: T1, PIM1 (Homo sapiens, UniProt P11309); assay: LANCE Ultra kinase assay, PIM1; assay type: biochemical
T1 construct: purchased ProQinase, Freiburg, Germany 0186-0000-1
Text: (§4) The second assay used was Perkin Elmer's LANCE® Ultra kinase assay which uses a ULight™-labeled peptide substrate and an appropriate Europium-labeled anti-phospho antibody. When the substrate becomes phosphorylated by a kinase of interest, the phosphorylated site on the substrate is recognized by the Europium-labeled anti-phospho antibody. […] The intensity of light emission is proportional to the level of ULight peptide phosphorylation. A kinase inhibitor reduces the FRET signal, thus providing an accurate and sensitive measure of inhibition potency.
(§5) The assay was performed in 384-well plates in two steps: PIM kinases were mixed with the ULight-substrate (CREBtide) in buffer and incubated for 10 min. Subsequently, ATP and molecules of the present disclosure were added in a kinase buffer at the appropriate concentration and the reactions were incubated for 1 hour, at room temperature in the dark. • After 1 h EDTA was added to stop the kinase reaction, Eu-W1024-labeled anti-phosphoserine-CREB (Ser133) Antibody (anti-phosphoCREBtide specific antibody) was added to the reaction in LANCE Detection buffer. The mixture was allowed to incubate for 30 min to allow binding of the antibody to the phosphorylated site before the plate was read using a Tecan microplate reader
(§6) Kinase Assay Buffer—50 mM HEPES pH7.0.1 mM EGTA, 10 mM MgCl2, 0.01% BRU-35.
(§7) The inhibitory activity of each compound against PIM kinases was measured with the LANCE® Ultra Kinase Assays by ChemDiv, Inc. (San Diego, Calif.).

[5] = target: T2, PIM3 (Homo sapiens, UniProt Q86V86); assay: LANCE Ultra kinase assay, PIM3; assay type: biochemical; conditions: for Selectivity among PIM1-3 (EC50 plots, FIGS. 2A, 2B): LANCE Ultra assay; for IC50: LANCE assay
T2 construct: purchased SignalChem, Richmond, Canada P37-10BG
Text: as §4, §5, §6, §7

[6] = tested on: HepaRG; assay: CellTiter-Glo cancer cell growth inhibition, HepaRG; assay type: cell-based; conditions: Homo sapiens, 72 h
Text: as §1, §2, §3

[7] = target: T3, PIM2 (Homo sapiens, UniProt Q9P1W9); assay: LANCE Ultra kinase assay, PIM2; assay type: biochemical
T3 construct: purchased ProQinase, Freiburg, Germany 0223-0000-1
Text: as §4, §5, §6, §7

[8] = tested on: Hepa1-6 mouse liver cancer cells; assay: Hepa1-6 liver cancer xenograft mice; assay type: in vivo
Description: Hepa1-6 mouse liver cancer cells are suspended in Hank's balanced salt solution (HBSS)(2×10^7 cells/mL), and the suspension (100 μL) was subcutaneously injected into the back flank of six female CD57 immunocompetent mice. After growing for 21 days, the tumors were resected, cut into small pieces, and inserted under the skin on each back flank of twelve female CD57 mice (24 tumors total). Mice were maintained for 15 days following tumor insertion to establish robust and consistent tumor growth. The mice were randomly split into six groups of two mice each (two tumors per mouse). Alter establishment of the Hepa1-6 xenografts in CD57 mice, tumor dimensions were measured every 2 days using micrometer calipers. Four groups were treated with compound 49 (PO: 25 mg/kg and 50 mg/k; IP: 10 mg/kg and 25 mg/kg) by both oral (PO, gavage) and intraperitoneal (IP) administration once per day (q.d.) and two control groups were administered vehicle only through the same routes for 10 consecutive days. Mice are weighed daily, starting from the date of Hepa1-6 tumor insertion (day 0). At 25 days after subcutaneous inoculation with Hepa1-6 tumors, mice were euthanized via carbon dioxide asphyxiation and all tumors were excised immediately following death, weighed and measured, and then snap-frozen in liquid nitrogen. Tumor volume (TV) was calculated by the following formula: TV=0.5ab^2, where a is tumor length in mm, and b is tumor width in mm. […] Body weight of mice in all groups was maintained within 10% of day 0 baseline.

[9] = growth inhibition, 72 hours, CellTiter-Glo

T3 sequence (Q9P1W9 whole entry): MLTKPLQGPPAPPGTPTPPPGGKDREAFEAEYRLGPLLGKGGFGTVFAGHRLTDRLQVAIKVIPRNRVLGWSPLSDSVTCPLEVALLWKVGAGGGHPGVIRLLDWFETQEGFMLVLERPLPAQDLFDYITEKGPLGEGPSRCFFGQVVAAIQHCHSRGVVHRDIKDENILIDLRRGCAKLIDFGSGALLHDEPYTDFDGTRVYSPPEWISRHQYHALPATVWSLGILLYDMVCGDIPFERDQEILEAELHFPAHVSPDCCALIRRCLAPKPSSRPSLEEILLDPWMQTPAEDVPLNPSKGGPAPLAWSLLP
T1 sequence (P11309 whole entry): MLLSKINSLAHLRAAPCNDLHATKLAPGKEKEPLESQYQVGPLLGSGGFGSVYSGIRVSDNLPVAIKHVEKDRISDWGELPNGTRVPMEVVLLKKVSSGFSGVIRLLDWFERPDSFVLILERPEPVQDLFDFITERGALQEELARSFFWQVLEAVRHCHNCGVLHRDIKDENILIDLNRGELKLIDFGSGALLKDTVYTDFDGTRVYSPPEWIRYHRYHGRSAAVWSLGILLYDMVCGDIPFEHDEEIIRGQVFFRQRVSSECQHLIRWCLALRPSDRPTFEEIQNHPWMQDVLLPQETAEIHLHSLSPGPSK

| Compound | EC50 ([1]; Homo sapiens, A673, 72 h) | IC50 ([4]; ATP 0.1 mM) | IC50 ([4]; ATP 1 mM) | IC50 ([5]; ATP 0.1 mM) | IC50 ([5]; ATP 1 mM) | EC50 ([2]; Homo sapiens, Huh-7, 72 h) | EC50 ([3]; Homo sapiens, HepG2, 72 h) | EC50 [6] | IC50 ([7]; ATP 0.1 mM) | IC50 ([7]; ATP 1 mM) | also measured |
| --- | --- | --- | --- | --- | --- | --- | --- | --- | --- | --- | --- |
| N[C@@H]1CCCN(c2c(/C=C3\SC(=O)NC3=O)cccc2-c2ccccc2)C1 [AZD-1208, reference compound] |  |  |  |  |  |  |  |  |  |  | EC50 [1, 9]: 19700 nM; EC50 [2, 9]: 13500 nM; EC50 [3, 9]: 28000 nM |
| O=C1NC(=O)c2c1c1c3ccc(O)cc3[nH]c1c1c2c2ccc(O)cc2n1CCN1CCOCC1 [Compound 32, 2,10-dihydroxy-12-(2-morpholinoethyl)-12,13-dihydro-5H-indolo[2,3-a]pyrrolo[3,4-c]carbazole-5,7(6H)-dione] | 37 nM | 0.81 nM | 2 nM | 1.2 nM | 4.9 nM | 240 nM | 570 nM | 250 nM | 36 nM | 480 nM | Selectivity among PIM1-3 (EC50 plots, FIGS. 2A, 2B) [5]: PIM1 and PIM3 selectivity |
| O=C1NC(=O)c2c1c1c3cc(F)c(O)cc3[nH]c1c1c2c2cc(F)c(O)cc2n1CCN1CCOCC1 [Compound 37, 3,9-difluoro-2,10-dihydroxy-12-(2-morpholinoethyl)-12,13-dihydro-5H-indolo[2,3-a]pyrrolo[3,4-c]carbazole-5,7(6H)-dione] | 2.2 nM | 0.7 nM | 0.93 nM | 1.1 nM | 5 nM | 77 nM | 54 nM | 16 nM | 13 nM | 180 nM |  |
| O=C1NC(=O)c2c1c1c3ccncc3[nH]c1c1c2c2ccc(O)cc2n1CCN1CCOCC1 [Compound 41] | 4.4 nM |  | 0.42 nM |  | 1.6 nM | 100 nM |  |  |  | 674 nM |  |
| O=C1NC(=O)c2c1c1c3ccc(O)cc3[nH]c1c1c2c2ccncc2n1CCN1CCOCC1 [Compound 42] | 5 nM |  | 0.16 nM |  | 1.9 nM | 100 nM |  |  |  | 18 nM |  |
| O=C1NC(=O)c2c1c1c3cc(F)ccc3[nH]c1c1c2c2cc(F)ccc2n1CCN1CCOCC1 [Compound 49, 3,9-difluoro-12-(2-morpholin-4-ylethyl)-12,13-dihydro-5H-indolo[2,3-a]pyrrolo[3,4-c]carbazole-5,7(6H)-dione] | 57 nM | 4 nM |  | 0.7 nM |  | 100 nM | 40 nM | > 10000 nM | > 1000 nM |  | Reduction of tumor size relative to control tumors ([8]; IP injection 25 mg/kg q.d., 10 days, CD57 mice): up to 50%; Tumor reduction ([8]; PO dosing (25 mg/kg and 50 mg/kg) q.d., CD57 mice): No tumor reduction was observed; Body weight change vs day 0 baseline ([8]; all groups (PO 25, 50 mg/kg; IP 10, 25 mg/kg)): ≤ 10%; Tumor reduction ([8]; lower doses (IP 10 mg/kg) q.d., CD57 mice): No tumor reduction was observed |
| O=C1NC(=O)c2c1c1c3cc(F)ccc3[nH]c1c1c2c2cc(F)ccc2n1CCN1CCCCC1 [Compound 51, 3,9-difluoro-12-(2-piperidin-1-ylethyl)-12,13-dihydro-5H-indolo[2,3-a]pyrrolo[3,4-c]carbazole-5,7(6H)-dione] |  | 3 nM |  | 0.8 nM |  |  |  |  | > 1000 nM |  |  |
| C[C@@H]1CCC[C@H](C)N1CCn1c2ccc(F)cc2c2c3c(c4c5cc(F)ccc5[nH]c4c21)C(=O)NC3=O [Compound 53, 12-{2-[(2R,6S)-2,6-dimethylpiperidin-1-yl]ethyl}-3,9-difluoro-12,13-dihydro-5H-indolo[2,3-a]pyrrolo[3,4-c]carbazole-5,7(6H)-dione] |  | 3 nM |  | 2.4 nM |  |  |  |  | > 1000 nM |  | Selectivity among PIM1-3 (EC50 plots, FIGS. 2A, 2B) [5]: PIM1 and PIM3 selectivity |
| O=C1NC(=O)c2c1c1c3ccc(O)cc3[nH]c1c1c2c2ccc(O)cc2n1CCN1CCCCC1 [Compound 56, 2,10-dihydroxy-12-(2-piperidinoethyl)-12,13-dihydro-5H-indolo[2,3-a]pyrrolo[3,4-c]carbazole-5,7(6H)-dione] | 35 nM | 0.7 nM |  | 1 nM |  | 484 nM | 315 nM | 77 nM | 50 nM |  |  |
| C[C@@H]1CCC[C@H](C)N1CCn1c2cc(O)c(F)cc2c2c3c(c4c5cc(F)c(O)cc5[nH]c4c21)C(=O)NC3=O [Compound 59, 12-{2-[(2R,6S)-2,6-dimethylpiperidin-1-yl]ethyl}-3,9-difluoro-2,10-dihydroxy-12,13-dihydro-5H-indolo[2,3-a]pyrrolo[3,4-c]carbazole-5,7(6H)-dione] | 3.1 nM | 0.1 nM |  | 3 nM |  | 925 nM | 266 nM | 20 nM | 37 nM |  |  |
| CNC(=O)c1cc(Oc2ccc(NC(=O)Nc3ccc(Cl)c(C(F)(F)F)c3)c(F)c2)ccn1 [Regorafenib, reference compound] | 30000 nM |  |  |  |  | 4400 nM | 4300 nM | 2300 nM |  |  |  |
| CNC(=O)c1cc(Oc2ccc(NC(=O)Nc3ccc(Cl)c(C(F)(F)F)c3)cc2)ccn1 [Sorafenib, reference compound] | 18000 nM |  |  |  |  | 2600 nM | 2300 nM | 1400 nM |  |  |  |
